Measurements published in patent publication US8871751B2, “Compositions and methods relating to nuclear hormone and steroid hormone receptors including inhibitors of estrogen receptor alpha-mediated gene expression and inhibition of breast cancer” (The Board of Trustees of the University of Illinois, priority 2008, dated 2014).
One block for each compound: values may come before it.

Experiments:
[1] = tested on: ERα negative MDA-MB-231 cells; test: MDA-MB-231 cell growth / toxicity assay (MTS); type: cell-based, human
Experimental: ERα negative MDA-MB-231 human breast cancer cells were used to test for generalized toxicity of the test compounds. To parallel the reporter gene assays in stably transfected T47D breast cancer cells, 5,000 MDA-MB-231 cells per well were plated in a 96 well plate. The cells were maintained in the medium described above for the T47D cells. One day after plating, the same concentration of test compound used in the reporter gene assay (up to 30 μM) was added. After 24 h the MTS assay was carried out as described above. A more stringent toxicity assay parallels the assay for inhibition of estrogen-dependent growth of BG-1 cells. 250 MDA-MB-231 cells were plated per well and maintained and assayed as described for the BG-1 cells. Several compounds without detectable toxicity in the 24-h assay inhibited MDA-MB-231 cell growth in the 5-6 day assay.
Assays for Cell Growth and Viability. Cells were maintained in the media listed above containing CD-treated serum for at least 4 days prior to the experiment. To minimize cell aggregation, MCF-7 cells were harvested in 10 mM Hepes, pH 7.4, 1 mM EDTA. Other cell lines were harvested in trypsin-EDTA. 1,000 cells were plated into each well of a 96 well plate. For slow growing ZR-75 cells, 2,000 cells were plated/well. The cells were maintained in medium containing CD-treated serum for 24 hours. At 24 hours the medium was changed and E2 and DMSO vehicle or TPSF in DMSO was added. The medium was replaced after 2 days (except for BT474 cells whose medium was not changed). After 4 days viable cells were determined using a cell viability test, Promega CellTiter 96 Aqueous One Solution Cell Proliferation Assay (MTS) (Promega, Wis.).

ER negative HeLa cells = settings: 10-20 μM; cited from earlier work
GR = molecular target: T1, GR (Rattus norvegicus, UniProt P06536); test: GR transactivation, MMTV-luciferase reporter in T47D cells; type: cell-based, human
T1 construct: expressed in transfected cells; host or cells: T47D/A1-2
T1 sequence (P06536 1-795): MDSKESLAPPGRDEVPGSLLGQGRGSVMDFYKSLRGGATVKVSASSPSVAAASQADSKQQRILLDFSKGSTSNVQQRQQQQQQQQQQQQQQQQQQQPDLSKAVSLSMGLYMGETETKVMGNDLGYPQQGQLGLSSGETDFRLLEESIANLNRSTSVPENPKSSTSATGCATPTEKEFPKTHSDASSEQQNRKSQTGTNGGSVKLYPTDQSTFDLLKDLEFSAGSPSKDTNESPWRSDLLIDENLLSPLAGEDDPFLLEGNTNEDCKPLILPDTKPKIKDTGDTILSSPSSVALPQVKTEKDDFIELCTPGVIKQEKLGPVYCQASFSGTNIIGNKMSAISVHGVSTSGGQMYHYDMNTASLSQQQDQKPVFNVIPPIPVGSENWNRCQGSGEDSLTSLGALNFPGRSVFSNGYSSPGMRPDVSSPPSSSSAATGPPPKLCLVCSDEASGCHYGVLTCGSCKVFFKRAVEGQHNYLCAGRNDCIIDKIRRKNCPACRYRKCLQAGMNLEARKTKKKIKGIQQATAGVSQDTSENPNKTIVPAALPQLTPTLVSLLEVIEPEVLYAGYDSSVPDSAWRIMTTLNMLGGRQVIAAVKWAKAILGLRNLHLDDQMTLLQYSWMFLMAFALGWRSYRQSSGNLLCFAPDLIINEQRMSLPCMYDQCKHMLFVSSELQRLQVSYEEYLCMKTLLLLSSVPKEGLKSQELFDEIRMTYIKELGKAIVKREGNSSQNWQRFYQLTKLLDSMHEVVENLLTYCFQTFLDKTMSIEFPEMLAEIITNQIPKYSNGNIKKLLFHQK
Experimental: The T47D-KBluc cells stably express an (ERE)3-luciferase reporter gene (38). Cells were maintained in phenol red-free RPMI 1640 with 2 mM L-glutamine, 1.5 g/l sodium bicarbonate, 4.5 g/l glucose, 10 mM Hepes, pH 7.5, 1 mM sodium pyruvate, 10% FBS (Atlanta Biological, Atlanta, Ga.) and antibiotics. Four days before E2 induction, the cells were switched to the above medium, with 10% 2× charcoal-dextran-treated calf serum instead of FBS. 200,000 cells/well were transferred to each well of a 24-well plate. After 24 h the indicated concentrations of the test compounds were added in DMSO and E2 was added to 20 pM. After 24 h cells were washed once in PBS, and 150 μl 1× Passive Lysis Buffer (Promega, Madison Wis.) was used to lyse the cells. Luciferase activity was determined using firefly luciferase reagents from Promega (Madison, Wis.). T47D cells stably transfected to express GR and a mouse mammary tumor virus luciferase reporter that responds to liganded GR and PR were maintained and assayed in medium containing 5 nM progesterone for PR assays, or 2.5 nM dexamethsaone for GR assays, essentially as described (39).
Reporter Gene Assays. TPSF was identified by reporter gene assays comparing the ability of ˜200 compounds structurally related to TPBM (see reference 19) to inhibit transcription of a stably transfected (ERE)3-luciferase reporter gene in T47D-KBluc breast cancer cells (20). AR was assayed in stably transfected HeLa cells and GR was assayed in stably transfected T47D cells maintained as described above. Four days before each experiment the cells were switched to medium containing CD-treated serum as described above. The HeLaAR cells were plated at 100,000 cells/well and the T47D/A1-2 and T47D-KBluc cells were plated at 200,000 cells/well in 1 ml of their respective media in 24-well plates. After 24 hours the indicated concentrations of E2, dihydrotestosterone (DHT) or dexamethasone (Dex) and DMSO vehicle, with or without TPSF, were added to each well. After 24 hours, the cells were washed once in phosphate buffered saline and lysed using 100 μl of 1× Passive Lysis Buffer (Promega, Madison Wis.). Luciferase activity was determined using BrightGlo firefly luciferase reagent from Promega (Madison, Wis.).

[2] = Short-term mouse toxicity study; type: in vivo; settings: up to 400 mg/kg
BT474 cells = settings: 5 μM; see Wang 2006; cited from earlier work
ZR-75 cells = settings: 5 μM; see Wang 2006; cited from earlier work

Compound: 4-hydroxytamoxifen [OHT, reference compound]
effect on MDA-MB-231 cells ([1]; 10 μM): killed many
effect on MDA-MB-231 cells ([1]; 20 μM): all the cells were killed
effect in ER negative HeLa cells (ER negative HeLa cells): induce caspase-dependent apoptosis

effect on GR (GR): virtually no effect
Compound: Cn1c(=O)c2[nH]c(Cc3ccc4ccccc4c3)nc2n(C)c1=O [Compound 14147]

Compound: CCCCCCCc1nc2c([nH]1)c(=O)n(C)c(=O)n2C [Compound 101794]
toxicity in a short-term mouse study [2]: no toxicity

Compound: O=C(c1ccc(OCCN2CCCCC2)cc1)c1c(-c2ccc(O)cc2)sc2cc(O)ccc12 [raloxifene]
effect in ER negative HeLa cells (ER negative HeLa cells): induce caspase-dependent apoptosis

Compound: disulfide benzamide [DIBA]
effect on growth of tamoxifen-resistant BT474 cells (BT474 cells): did not inhibit
inhibition of growth of ZR-75 cells (ZR-75 cells): ~20%
